In paper PMC13210772, “Dual FLT3/MAPK14 Proteolysis-Targeting Chimera (PROTAC) Induces Potent Acute Myeloid Leukemia Cell Death” (Pharmaceuticals, 2026):

Experiments:
Assay in all cases: NanoBRET CELLinib128
[1] = molecular target: STK26 (Homo sapiens, UniProt Q9P289); conditions: read-out: Tracer bound
[2] = molecular target: EPHA2 (Homo sapiens, UniProt P29317); conditions: read-out: Tracer bound
[3] = molecular target: RON (Homo sapiens, UniProt Q04912); conditions: read-out: Tracer bound
[4] = molecular target: MAPK14 (Homo sapiens, UniProt Q16539); conditions: 1 µM; 100% no effect, 0% complete tracer displacement
[5] = molecular target: GSK3A (Homo sapiens, UniProt P49840); conditions: read-out: Tracer bound
[6] = molecular target: EPHA4 (Homo sapiens, UniProt P54764); conditions: read-out: Tracer bound
[7] = molecular target: T1, RPS6KA6 (Homo sapiens, UniProt Q9UK32); format: binding; conditions: 1 µM; 100% no effect, 0% complete tracer displacement
T1 construct: Full-length kinase ORF (Promega, Madison, WI, USA) cloned in frame with a NanoLuc-vector was transfected into HEK293T cells; host or cells: HEK293T
Method: (§1) To get an impression about the binding strength of the PROTAC MA191 and the reference inhibitor MA68 to other kinases besides FLT3-ITD the binding on a kinase panel of further 128 representative protein kinases at 1 μM concentration was tested using the NanoBRET^TM cellular target engagement assay (CELLinib128 assay, CELLinib GmbH, Frankfurt, Germany). […] In none of the 128 kinases MA191 was able to displace the tracer (inhibitor) used by more than 50%, Table S1, Supplementary Information).
(§2) The CELLinib128 assay was performed by CELLinib GmbH, Frankfurt (Germany) as described previously. In brief: Full-length kinase ORF (Promega, Madison, WI, USA) cloned in frame with a NanoLuc-vector was transfected into HEK293T cells in Opti-MEM without phenol red (Life Technologies, Carlsbad, CA, USA) at a density of 2 × 10^5 cells/mL using FuGENE HD (Promega, E2312) and proteins were allowed to express for 20 h. For CDKs, where indicated below, an excess of an activator without an NLuc-fusion was cotransfected. […] The system was allowed to equilibrate at 37 °C for 2 h and 5% CO2 prior to BRET measurements. For PKCs, a chemical activator PMA was added in a final concentration of 1 µM was added together with test compounds and tracers (Promega, V1171). To measure BRET, NanoBRET^TM NanoGlo substrate + extracellular NanoLuc inhibitor (Promega, N2160) were added as per the manufacturer’s protocol, and filtered luminescence was measured (450 nm BP filter (donor) and 610 nm LP filter (acceptor)). For the 1-shot test compounds, data were normalized to the tracer control and the background control or control compound plateau and an average and SD were calculated. […] For the control compounds competitive displacement data were normalized to the tracer Ctrl and the background Ctrl and then plotted and fitted using GraphPad Prism 10 software using a normalized 3-parameter curve fit with the following equation: Y = 100/(1 + 10^X−LogIC50).

[8] = molecular target: T2, CDK20-CCNH (Homo sapiens, UniProt Q8IZL9); format: binding; conditions: 100% no effect, 0% complete tracer displacement, read-out: Tracer bound
T2 construct: Full-length kinase ORF (Promega, Madison, WI, USA) cloned in frame with a NanoLuc-vector was transfected into HEK293T cells; host or cells: HEK293T
Method: as §1, §2

[9] = molecular target: T3, IRAK3 (Homo sapiens, UniProt Q9Y616); format: binding; conditions: 100% no effect, 0% complete tracer displacement, read-out: Tracer bound
T3 construct: Full-length kinase ORF (Promega, Madison, WI, USA) cloned in frame with a NanoLuc-vector was transfected into HEK293T cells; host or cells: HEK293T
Method: as §1, §2

[10] = molecular target: T4, PRKCE-PMA (Homo sapiens, UniProt Q02156); format: binding; conditions: 100% no effect, 0% complete tracer displacement, read-out: Tracer bound
T4 construct: Full-length kinase ORF (Promega, Madison, WI, USA) cloned in frame with a NanoLuc-vector was transfected into HEK293T cells; host or cells: HEK293T
Method: as §1, §2

[11] = molecular target: T5, CHEK2 (Homo sapiens, UniProt O96017); format: binding; conditions: 100% no effect, 0% complete tracer displacement, read-out: Tracer bound
T5 construct: Full-length kinase ORF (Promega, Madison, WI, USA) cloned in frame with a NanoLuc-vector was transfected into HEK293T cells; host or cells: HEK293T
Method: as §1, §2

[12] = molecular target: T6, CDK17-CCNY (Homo sapiens, UniProt Q00537); format: binding; conditions: 100% no effect, 0% complete tracer displacement, read-out: Tracer bound
T6 construct: Full-length kinase ORF (Promega, Madison, WI, USA) cloned in frame with a NanoLuc-vector was transfected into HEK293T cells; host or cells: HEK293T
Method: as §1, §2

[13] = molecular target: T7, MAP4K3 (Homo sapiens, UniProt Q8IVH8); format: binding; conditions: 1 µM; 100% no effect, 0% complete tracer displacement
T7 construct: Full-length kinase ORF (Promega, Madison, WI, USA) cloned in frame with a NanoLuc-vector was transfected into HEK293T cells; host or cells: HEK293T
Method: as §1, §2

[14] = molecular target: T8, STK35 (Homo sapiens, UniProt Q8TDR2); format: binding; conditions: 100% no effect, 0% complete tracer displacement, read-out: Tracer bound
T8 construct: Full-length kinase ORF (Promega, Madison, WI, USA) cloned in frame with a NanoLuc-vector was transfected into HEK293T cells; host or cells: HEK293T
Method: as §1, §2

[15] = molecular target: T9, CAMK2A (Homo sapiens, UniProt Q9UQM7); format: binding; conditions: 100% no effect, 0% complete tracer displacement, read-out: Tracer bound
T9 construct: Full-length kinase ORF (Promega, Madison, WI, USA) cloned in frame with a NanoLuc-vector was transfected into HEK293T cells; host or cells: HEK293T
Method: as §1, §2

[16] = molecular target: T10, AURKA (Homo sapiens, UniProt O14965); format: binding; conditions: 100% no effect, 0% complete tracer displacement, read-out: Tracer bound
T10 construct: Full-length kinase ORF (Promega, Madison, WI, USA) cloned in frame with a NanoLuc-vector was transfected into HEK293T cells; host or cells: HEK293T
Method: as §1, §2

[17] = molecular target: T11, AURKB (Homo sapiens, UniProt Q96GD4); format: binding; conditions: 100% no effect, 0% complete tracer displacement, read-out: Tracer bound
T11 construct: Full-length kinase ORF (Promega, Madison, WI, USA) cloned in frame with a NanoLuc-vector was transfected into HEK293T cells; host or cells: HEK293T
Method: as §1, §2

[18] = molecular target: T12, PAK6 (Homo sapiens, UniProt Q9NQU5); format: binding; conditions: 100% no effect, 0% complete tracer displacement, read-out: Tracer bound
T12 construct: Full-length kinase ORF (Promega, Madison, WI, USA) cloned in frame with a NanoLuc-vector was transfected into HEK293T cells; host or cells: HEK293T
Method: as §1, §2

[19] = molecular target: T13, NEK1 (Homo sapiens, UniProt Q96PY6); format: binding; conditions: 100% no effect, 0% complete tracer displacement, read-out: Tracer bound
T13 construct: Full-length kinase ORF (Promega, Madison, WI, USA) cloned in frame with a NanoLuc-vector was transfected into HEK293T cells; host or cells: HEK293T
Method: as §1, §2

[20] = molecular target: T14, TNNI3K (Homo sapiens, UniProt Q59H18); format: binding; conditions: 100% no effect, 0% complete tracer displacement, read-out: Tracer bound
T14 construct: Full-length kinase ORF (Promega, Madison, WI, USA) cloned in frame with a NanoLuc-vector; host or cells: HEK293T
Method: as §1, §2

[21] = molecular target: T15, RET (Homo sapiens, UniProt P07949); format: binding; conditions: 100% no effect, 0% complete tracer displacement, read-out: Tracer bound
T15 construct: Full-length kinase ORF (Promega, Madison, WI, USA) cloned in frame with a NanoLuc-vector was transfected into HEK293T cells; host or cells: HEK293T
Method: as §1, §2

[22] = molecular target: T16, TBK1 (Homo sapiens, UniProt Q9UHD2); format: binding; conditions: 100% no effect, 0% complete tracer displacement, read-out: Tracer bound
T16 construct: Full-length kinase ORF (Promega, Madison, WI, USA) cloned in frame with a NanoLuc-vector was transfected into HEK293T cells; host or cells: HEK293T
Method: as §1, §2

[23] = molecular target: T17, STK4 (Homo sapiens, UniProt Q13043); format: binding; conditions: 1 µM; 100% no effect, 0% complete tracer displacement
T17 construct: Full-length kinase ORF (Promega, Madison, WI, USA) cloned in frame with a NanoLuc-vector was transfected into HEK293T cells; host or cells: HEK293T
Method: as §1, §2

[24] = molecular target: T18, PRKCQ-PMA (Homo sapiens, UniProt Q04759); format: binding; conditions: 100% no effect, 0% complete tracer displacement, read-out: Tracer bound
T18 construct: Full-length kinase ORF (Promega, Madison, WI, USA) cloned in frame with a NanoLuc-vector was transfected into HEK293T cells; host or cells: HEK293T
Method: as §1, §2

[25] = molecular target: T19, JAK2 (Homo sapiens, UniProt O60674); format: binding; conditions: 1 µM; 100% no effect, 0% complete tracer displacement
T19 construct: Full-length kinase ORF (Promega, Madison, WI, USA) cloned in frame with a NanoLuc-vector was transfected into HEK293T cells; host or cells: HEK293T
Method: as §1, §2

[26] = molecular target: T20, SNRK (Homo sapiens, UniProt Q9NRH2); format: binding; conditions: 100% no effect, 0% complete tracer displacement, read-out: Tracer bound
T20 construct: Full-length kinase ORF (Promega, Madison, WI, USA) cloned in frame with a NanoLuc-vector was transfected into HEK293T cells; host or cells: HEK293T
Method: as §1, §2

[27] = molecular target: T21, JAK3 (Homo sapiens, UniProt P52333); format: binding; conditions: 100% no effect, 0% complete tracer displacement, read-out: Tracer bound
T21 construct: Full-length kinase ORF (Promega, Madison, WI, USA) cloned in frame with a NanoLuc-vector was transfected into HEK293T cells; host or cells: HEK293T
Method: as §1, §2

[28] = molecular target: T22, SIK3 (Homo sapiens, UniProt Q9Y2K2); format: binding; conditions: 1 µM; 100% no effect, 0% complete tracer displacement
T22 construct: Full-length kinase ORF (Promega, Madison, WI, USA) cloned in frame with a NanoLuc-vector was transfected into HEK293T cells; host or cells: HEK293T
Method: as §1, §2

[29] = molecular target: T23, CDK3-CCNE1 (Homo sapiens, UniProt Q00526); format: binding; conditions: 1 µM; 100% no effect, 0% complete tracer displacement
T23 construct: Full-length kinase ORF (Promega, Madison, WI, USA) cloned in frame with a NanoLuc-vector was transfected into HEK293T cells; host or cells: HEK293T
Method: as §1, §2

T5 sequence (O96017 whole entry): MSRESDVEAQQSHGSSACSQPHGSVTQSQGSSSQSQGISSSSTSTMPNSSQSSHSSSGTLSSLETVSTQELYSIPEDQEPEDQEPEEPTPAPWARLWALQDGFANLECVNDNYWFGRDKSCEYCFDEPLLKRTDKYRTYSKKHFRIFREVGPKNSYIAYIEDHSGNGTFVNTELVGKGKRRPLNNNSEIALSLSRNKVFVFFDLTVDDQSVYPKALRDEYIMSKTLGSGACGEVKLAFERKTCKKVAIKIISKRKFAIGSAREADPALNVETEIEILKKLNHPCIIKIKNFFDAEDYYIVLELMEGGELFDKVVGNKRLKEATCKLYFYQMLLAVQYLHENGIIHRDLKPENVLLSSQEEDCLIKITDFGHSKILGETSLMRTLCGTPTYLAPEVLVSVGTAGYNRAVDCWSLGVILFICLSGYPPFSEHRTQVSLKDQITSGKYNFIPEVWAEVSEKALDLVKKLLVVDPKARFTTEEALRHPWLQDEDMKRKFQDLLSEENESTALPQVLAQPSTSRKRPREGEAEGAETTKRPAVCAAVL
Sequence of STK26 (Q9P289 whole entry): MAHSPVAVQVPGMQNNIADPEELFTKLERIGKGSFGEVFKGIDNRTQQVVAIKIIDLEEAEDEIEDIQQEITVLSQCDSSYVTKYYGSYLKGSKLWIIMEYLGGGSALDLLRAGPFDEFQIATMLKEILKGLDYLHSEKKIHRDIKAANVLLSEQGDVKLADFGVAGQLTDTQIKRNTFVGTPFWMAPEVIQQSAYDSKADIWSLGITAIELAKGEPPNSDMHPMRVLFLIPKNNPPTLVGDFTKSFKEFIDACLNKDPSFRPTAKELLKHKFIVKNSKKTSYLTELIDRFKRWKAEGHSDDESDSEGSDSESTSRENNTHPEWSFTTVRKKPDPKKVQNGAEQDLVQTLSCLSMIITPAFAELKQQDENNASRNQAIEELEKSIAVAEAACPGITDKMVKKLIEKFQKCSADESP
T12 sequence (Q9NQU5 whole entry): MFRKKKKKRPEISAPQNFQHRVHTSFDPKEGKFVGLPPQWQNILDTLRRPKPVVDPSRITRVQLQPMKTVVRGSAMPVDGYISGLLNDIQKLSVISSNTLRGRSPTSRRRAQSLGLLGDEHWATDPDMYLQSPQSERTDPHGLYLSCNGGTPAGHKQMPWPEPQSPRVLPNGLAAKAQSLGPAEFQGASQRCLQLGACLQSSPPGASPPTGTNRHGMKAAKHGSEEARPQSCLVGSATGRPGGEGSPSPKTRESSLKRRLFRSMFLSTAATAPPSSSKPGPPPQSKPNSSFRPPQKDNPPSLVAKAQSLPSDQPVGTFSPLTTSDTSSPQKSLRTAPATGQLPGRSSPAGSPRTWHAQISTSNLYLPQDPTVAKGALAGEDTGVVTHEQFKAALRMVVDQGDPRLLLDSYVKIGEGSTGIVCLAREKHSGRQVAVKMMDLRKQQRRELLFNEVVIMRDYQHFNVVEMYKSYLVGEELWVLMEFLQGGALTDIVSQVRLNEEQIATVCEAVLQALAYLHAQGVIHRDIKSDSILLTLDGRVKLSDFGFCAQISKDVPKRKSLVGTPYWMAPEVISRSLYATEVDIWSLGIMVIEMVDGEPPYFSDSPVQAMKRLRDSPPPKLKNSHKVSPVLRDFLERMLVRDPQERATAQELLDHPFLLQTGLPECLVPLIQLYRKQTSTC
T13 sequence (Q96PY6 whole entry): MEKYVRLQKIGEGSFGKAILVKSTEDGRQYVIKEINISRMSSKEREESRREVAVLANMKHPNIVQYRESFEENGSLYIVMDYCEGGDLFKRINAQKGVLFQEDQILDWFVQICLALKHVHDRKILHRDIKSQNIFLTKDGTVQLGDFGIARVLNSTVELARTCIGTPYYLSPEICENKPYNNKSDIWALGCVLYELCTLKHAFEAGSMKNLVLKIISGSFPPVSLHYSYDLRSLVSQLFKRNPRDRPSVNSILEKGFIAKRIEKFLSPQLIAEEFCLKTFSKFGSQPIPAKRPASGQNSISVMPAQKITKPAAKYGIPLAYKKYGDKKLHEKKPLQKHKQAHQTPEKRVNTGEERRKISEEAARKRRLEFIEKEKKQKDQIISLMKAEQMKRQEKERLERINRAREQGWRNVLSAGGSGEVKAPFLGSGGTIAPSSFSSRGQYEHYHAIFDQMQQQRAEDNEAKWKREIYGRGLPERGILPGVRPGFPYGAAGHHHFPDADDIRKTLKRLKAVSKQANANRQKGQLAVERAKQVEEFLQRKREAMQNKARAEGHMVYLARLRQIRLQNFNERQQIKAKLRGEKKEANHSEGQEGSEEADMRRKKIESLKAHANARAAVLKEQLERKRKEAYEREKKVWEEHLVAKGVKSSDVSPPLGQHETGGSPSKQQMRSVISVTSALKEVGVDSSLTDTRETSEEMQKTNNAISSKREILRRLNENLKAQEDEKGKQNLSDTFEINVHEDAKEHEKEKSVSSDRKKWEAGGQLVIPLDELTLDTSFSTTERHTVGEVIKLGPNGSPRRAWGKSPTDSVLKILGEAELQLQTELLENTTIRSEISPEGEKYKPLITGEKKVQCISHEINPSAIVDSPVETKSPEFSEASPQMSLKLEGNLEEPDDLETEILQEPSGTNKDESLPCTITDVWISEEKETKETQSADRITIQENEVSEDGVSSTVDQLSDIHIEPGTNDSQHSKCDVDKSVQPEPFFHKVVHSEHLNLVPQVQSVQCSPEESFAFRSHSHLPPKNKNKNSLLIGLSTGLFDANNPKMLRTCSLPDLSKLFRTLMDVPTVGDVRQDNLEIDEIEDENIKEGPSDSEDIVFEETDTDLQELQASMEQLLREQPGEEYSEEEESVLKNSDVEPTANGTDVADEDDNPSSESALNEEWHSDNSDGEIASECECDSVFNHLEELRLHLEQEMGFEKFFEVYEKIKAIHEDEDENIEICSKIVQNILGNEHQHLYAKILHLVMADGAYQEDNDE
T7 sequence (Q8IVH8 whole entry): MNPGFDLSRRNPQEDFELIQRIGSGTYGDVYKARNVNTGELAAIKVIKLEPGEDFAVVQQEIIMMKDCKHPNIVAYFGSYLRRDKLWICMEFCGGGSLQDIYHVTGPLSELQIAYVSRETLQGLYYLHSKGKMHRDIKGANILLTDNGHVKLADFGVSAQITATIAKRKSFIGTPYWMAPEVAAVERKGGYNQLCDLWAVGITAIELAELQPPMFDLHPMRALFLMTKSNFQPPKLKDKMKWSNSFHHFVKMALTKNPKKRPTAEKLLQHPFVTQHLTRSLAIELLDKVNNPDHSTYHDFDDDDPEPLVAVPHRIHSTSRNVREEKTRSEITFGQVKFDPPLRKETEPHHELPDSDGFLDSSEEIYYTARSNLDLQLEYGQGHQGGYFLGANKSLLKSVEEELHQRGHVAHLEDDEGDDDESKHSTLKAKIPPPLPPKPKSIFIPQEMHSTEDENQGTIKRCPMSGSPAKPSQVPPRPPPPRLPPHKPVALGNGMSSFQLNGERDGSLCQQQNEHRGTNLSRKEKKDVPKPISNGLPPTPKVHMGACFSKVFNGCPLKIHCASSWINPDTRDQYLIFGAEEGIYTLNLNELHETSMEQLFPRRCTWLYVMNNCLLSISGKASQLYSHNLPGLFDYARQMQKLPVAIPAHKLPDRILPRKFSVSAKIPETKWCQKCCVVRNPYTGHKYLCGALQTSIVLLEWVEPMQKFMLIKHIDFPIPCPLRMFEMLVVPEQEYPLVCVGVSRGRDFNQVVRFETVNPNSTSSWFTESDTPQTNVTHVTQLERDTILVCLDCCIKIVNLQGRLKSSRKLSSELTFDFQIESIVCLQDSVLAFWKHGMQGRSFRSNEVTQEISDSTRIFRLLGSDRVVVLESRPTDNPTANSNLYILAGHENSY
Sequence of MAPK14 (Q16539 whole entry): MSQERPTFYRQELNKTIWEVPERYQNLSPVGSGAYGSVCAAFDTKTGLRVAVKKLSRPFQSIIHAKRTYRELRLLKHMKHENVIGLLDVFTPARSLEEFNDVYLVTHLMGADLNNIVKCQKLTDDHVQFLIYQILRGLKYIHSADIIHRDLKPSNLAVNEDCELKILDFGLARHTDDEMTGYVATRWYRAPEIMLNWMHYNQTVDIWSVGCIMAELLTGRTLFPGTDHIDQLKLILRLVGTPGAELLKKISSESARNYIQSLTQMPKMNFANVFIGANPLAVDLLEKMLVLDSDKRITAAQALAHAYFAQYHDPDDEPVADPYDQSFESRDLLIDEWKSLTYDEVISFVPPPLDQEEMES
T8 sequence (Q8TDR2 whole entry): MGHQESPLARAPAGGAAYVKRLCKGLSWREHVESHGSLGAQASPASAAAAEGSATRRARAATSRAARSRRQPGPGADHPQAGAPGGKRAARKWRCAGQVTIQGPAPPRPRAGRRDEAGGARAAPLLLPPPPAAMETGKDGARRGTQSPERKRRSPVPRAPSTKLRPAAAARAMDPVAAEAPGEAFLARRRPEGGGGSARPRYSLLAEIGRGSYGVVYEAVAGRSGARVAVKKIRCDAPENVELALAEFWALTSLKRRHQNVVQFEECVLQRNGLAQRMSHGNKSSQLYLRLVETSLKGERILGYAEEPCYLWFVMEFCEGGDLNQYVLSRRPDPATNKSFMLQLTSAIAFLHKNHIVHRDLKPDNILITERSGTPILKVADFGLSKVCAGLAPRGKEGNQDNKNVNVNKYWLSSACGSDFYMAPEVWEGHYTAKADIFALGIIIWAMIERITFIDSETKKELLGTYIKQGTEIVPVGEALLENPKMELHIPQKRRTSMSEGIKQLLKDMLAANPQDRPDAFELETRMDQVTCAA
T11 sequence (Q96GD4 whole entry): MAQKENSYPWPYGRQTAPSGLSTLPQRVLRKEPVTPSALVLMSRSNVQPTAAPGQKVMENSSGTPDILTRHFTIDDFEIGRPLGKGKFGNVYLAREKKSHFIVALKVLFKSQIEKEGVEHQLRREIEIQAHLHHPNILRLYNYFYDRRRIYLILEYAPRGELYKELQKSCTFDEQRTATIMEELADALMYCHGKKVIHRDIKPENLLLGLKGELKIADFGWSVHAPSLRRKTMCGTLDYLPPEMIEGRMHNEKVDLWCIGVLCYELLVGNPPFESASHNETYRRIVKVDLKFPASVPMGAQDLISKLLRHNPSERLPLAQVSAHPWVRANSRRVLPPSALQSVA

Row | Compound | remaining activity at 1 µM [1] [%] | remaining activity at 1 µM [2] [%] | remaining activity at 1 µM [3] [%] | Tracer bound [4] [%] | remaining activity at 1 µM [5] [%] | remaining activity at 1 µM [6] [%] | Tracer bound [7] [%] | remaining activity at 1 µM [8] [%] | remaining activity at 1 µM [9] [%] | remaining activity at 1 µM [10] [%] | remaining activity at 1 µM [11] [%] | remaining activity at 1 µM [12] [%] | Tracer bound [13] [%] | remaining activity at 1 µM [14] [%] | remaining activity at 1 µM [15] [%] | remaining activity at 1 µM [16] [%] | remaining activity at 1 µM [17] [%] | remaining activity at 1 µM [18] [%] | remaining activity at 1 µM [19] [%] | remaining activity at 1 µM [20] [%] | further results
1 | CNC(=O)c1cc(Oc2ccc(NC(=O)Nc3cc(C(C)(C)C)on3)cc2)ccn1 [MA68, reference compound] | 88.5 | 10.6 | 100 | 25.9 | 95.9 | 33.7 | 113.5 | 93.3 | 120 | 76.2 | 119 | 13.9 | 102.6 | 59.6 | 102 | 120 | 76.4 | 116 | 110 | 15.1 | remaining activity at 1 µM [21]: 3.8%; remaining activity at 1 µM [22]: 107%; Tracer bound [23]: 98.8%; remaining activity at 1 µM [24]: 108%; Tracer bound [25]: 110.6%; remaining activity at 1 µM [26]: 99.2%; remaining activity at 1 µM [27]: 111%; Tracer bound [28]: 113.2%; Tracer bound [29]: 81.0%
2 | Cc1ncsc1-c1ccc([C@H](C)NC(=O)[C@@H]2C[C@@H](O)CN2C(=O)[C@@H](NC(=O)[C@H]2CC[C@H](C(=O)N3CCN(CCNC(=O)c4cc(Oc5ccc(NC(=O)Nc6cc(C(C)(C)C)on6)cc5)ccn4)CC3)CC2)C(C)(C)C)cc1 [MA191, 4-(4-(3-(5-(tert-Butyl)isoxazol-3-yl)ureido)phenoxy)-N-(2-(4-(trans-4-(((S)-1-((2S,4R)-4-hydroxy-2-(((S)-1-(4-(4-methylthiazol-5-yl)phenyl)ethyl)carbamoyl)pyrrolidin-1-yl)-3,3-dimethyl-1-oxobutan-2-yl)carbamoyl)cyclohexanecarbonyl)piperazin-1-yl)ethyl)picolinamide] | 82.3 | 104 | 98.5 | 70.3 | 118 | 118 | 107.5 | 108 | 115 | 78.3 | 111 | 81.3 | 91.1 | 95.8 | 102 | 120 | 109 | 120 | 95.9 | 83.2 | remaining activity at 1 µM [21]: 83.5%; remaining activity at 1 µM [22]: 108%; Tracer bound [23]: 102.0%; remaining activity at 1 µM [24]: 104%; Tracer bound [25]: 105.7%; remaining activity at 1 µM [26]: 97%; remaining activity at 1 µM [27]: 117%; Tracer bound [28]: 106.3%; Tracer bound [29]: 117.0%
